Source: patent US10183053B1, “Multi-component formulations” (priority 2017, dated 2019)

Columns and labels:
[1] = system: human stem cell derived neurons; experiment: Cell viability of human stem cell derived neurons treated with multi-component formulations (Hoechst/propidium iodide, ArrayScan VTI); format: cell-based
Method: Cryopreserved human stem cell derived neurons obtained from PhoenixSongs Biologicals were thawed and plated at a density of 12000 cells per well in a 384-well PDL/laminin coated plate. The neurons were maintained in a humidified environment at 37° C. with 5% CO2 for six days with periodic media changes before experimental procedures were performed. […] Cells were dosed in triplicate with 10-point dose response curves to determine if there was any protective effect (improved survival of cells) or toxicity with the test compounds versus the untreated cells. A positive control (chlorpromazine) was also used to assess cytotoxicity response in these cells. After a three-day incubation with test compositions, the cells were stained with Hoechst and propidium iodide and read on an ArrayScan VTI to determine cell viability. Results were normalized to vehicle and graphed using GraphPad Prism. […]

[2] = system: primary chicken neurons; experiment: MTT cell viability assay in primary chicken neurons; format: cell-based; settings: for concentration above which cell viability declined: compared to vehicle control, FIG. 5, FIG. 6; for Cell viability, Mean: no MSM nor FDP, 48 h
Method: Fertilized chicken eggs were stored under turning at 37.8° C. and 55% humidity until embryonic day eight. Embryos were transferred to a plastic dish and decapitated. Both hemispheres were removed, collected and cleaned from any loose tissue. Hemispheres were mechanically dissociated and 4.8×10^4 cells per well (96-well plates) were seeded in a volume of 160 μL. The cell culture medium consisted of Dubelcco's Modified Eagle's Medium with […], 5% Nu Serum, 0.01% gentamycin and 2 mM L-glutamine. Cultures were maintained at 37° C., 95% humidity and 5% CO2.
Test compositions and vehicle controls were applied to chicken neurons at day-in-vitro 8 for 48 h. On day-in-vitro 10 the viability of neurons was determined according to MTT cell viability assay using a plate reader (570 nm). That assay allows the measurement of the mitochondrial dehydrogenase activity, which reduces yellow MTT to dark blue formazan crystals. Since this reaction is catalyzed in living cells only, this assay is used for the determination of cell viability. MTT solution was added to each well in a final concentration of 0.5 mg/mL. After two hours the MTT-containing medium is aspired. Cells were lysed in 3% SDS and the formazan crystals were dissolved in isopropanol/HCl. Optical density was measured with a plate reader at 570 nm. Cell survival rage was expressed as optical density (OS). Values were calculated as percent of control values (vehicle control, which is medium).
Using the same protocol as in Example 2, primary chicken neurons were treated with varying concentrations of methylsulfonylmethane and/or fructose 1,6-diphosphate. Cell viability was determined with the MTT assay.
Using the protocol of Example 2, a formulation containing methylsulfonylmethane (0.1 μM), D-fructose 1,6-diphosphate trisodium salt hydrate (1 μM), and rutin (0.001 μM) was tested for cell viability in primary chicken neurons. Vehicle control (medium) and methylsulfonylmethane with fructose 1,6-diphosphate compositions were also tested. The results appear in FIG. 12.

CN(C)CCCN1c2ccccc2Sc2ccc(Cl)cc21 [Chlorpromazine, chlorpromazine]
IC50 ([1]; Homo sapiens, Neuron, 72 h, three-day incubation, formulations in medium with MSM 0.1 μM and FDP 1 μM, chlorpromazine without MSM and FDP, read-out: IC50 for Cell Loss): 3.8 µM | neuron cell toxicity / safety (in words) ([1]; at comparable concentrations): relatively high neuron cell toxicity

CS(C)(=O)=O [MSM, methylsulfonylmethane]
concentration above which cell viability declined [2]: above 5 mM

O=C(COP(=O)(O)O)[C@@H](O)[C@H](O)[C@H](O)COP(=O)(O)O [FDP, fructose 1,6-diphosphate]
concentration above which cell viability declined [2]: above 0.1 mM

C[C@@H]1O[C@@H](OC[C@H]2O[C@@H](Oc3c(-c4ccc(O)c(O)c4)oc4cc(O)cc(O)c4c3=O)[C@H](O)[C@@H](O)[C@@H]2O)[C@H](O)[C@H](O)[C@H]1O [Rutin, quercetin-3-O-rutinoside]
Cell viability, Mean ([2]; rutin 0.001 (μM), vehicle alone): 96.7% of control | Cell viability, Mean ([2]; rutin 0.01, vehicle alone): 99.7% of control | Cell viability, Mean ([2]; rutin 0.1, vehicle alone): 98.1% of control | Cell viability, Mean ([2]; rutin 1, vehicle alone): 97.7% of control | Cell viability, Mean ([2]; rutin 10, vehicle alone): 100.2% of control
